In patent US7915293B2, “Ubiquitin ligase inhibitors” (Rigel Pharmaceuticals, Inc., priority 2003, dated 2011):

biological target: E3 (His-APC11/APC2-"APC") (Homo sapiens, UniProt Q9NYG5+Q9UJX6); assay: Plate-based E3 ligase assay (APC FLAG), auto-ubiquitination; assay type: biochemical; set-up: key: “+” indicates that the compound exibits inhibitory activity; “−” indicates that low or no inhibitory activity was observed; settings: 8 concentrations tested
Method: E3 (His-APC11/APC2-“APC”) auto-ubiquitination was measured as described in U.S. patent application Ser. No. 09/826,312 (Publication No. US-2002-0042083-A1), which is incorporated herein in its entirety. Details of the protocol are described below. Activity in the presence of the compound was determined relative to a parallel control in which only DMSO was added. Values of the IC50 were typically determined using 6 or 8 different concentrations of the compound, although as few as 2 concentrations may be used to approximate the IC50 value.
Nickel-coated 96-well plates (Pierce 15242) were blocked for 1 hour with 100 μl of blocking buffer at room temperature. The plates were washed 4 times with 225 μl of 1×PBS and 80 μl of the reaction buffer were added that contained 100 ng/well of Flag-ubiquitin. To this, 10 μl of the test compound diluted in DMSO were added. After the test compound was added, 10 μl of E1 (human), E2 (Ubch5c), and APC in Protein Buffer was added to obtain a final concentration of 5 ng/well of E1, 20 ng/well of E2 and 100 ng/well of APC. The plate were shaken for 10 minutes and incubated at room temperature for 1 hour. After incubation, the plates were washed 4 times with 225 μl of 1×PBS and 100 μl/well of Antibody Mix were added to each well. The plates were incubate at room temperature for another hour after which they were washed 4 times with 225 μl of 1×PBS and 100 μl/well of Lumino substrate were added to each well. The luminescence was measured by using a BMG luminescence microplate reader.
To prepare the Blocking Buffer (1 liter; 1% Casein in 1×PBS), 10 grams of Casein (Hammersten Grade Casein from Gallard-Schlesinger Inc. #440203) were placed into 1 liter of 1×PBS, stirred on a hot plate and kept between 50-60° C. for an hour. The buffer was allowed to cool to room temperature and then filtered using a Buchner Funnel (Buchner filter funnel 83 mm 30310-109) and Whatman filter paper (Whatman Grade No. 1 Filter paper 28450-070). It was stored at 4° C. until used.
The reaction buffer consisted of 62.5 mM Tris pH 7.6 (Trizma Base—Sigma T-8524), 3 mM MgCl2 (Magnesium Chloride—Sigma M-2393), 1 mM DTT (Sigma D-9779), 2.5 mM ATP (Roche Boehringer Mann Corp. 635-316), 100 ng/well of Flag-ubiquitin, 0.1% BSA (Sigma A-7906), and 0.05% Tween-20 (Sigma P-7949).
The Protein Buffer consisted of 20 mM Tris pH 7.6, 10% glycerol (Sigma G-5516) and 1 mM DTT.
The antibody mix consisted of 0.25% BSA (Sigma A-7906) in 1×PBS, 1/50,000 anti-Flag (Sigma F-3165), 1/100,000 of anti-Mouse IgG-HRP (Jackson Immunoresearch #115-035-146).
The substrate mix consisted of SuperSignal Substrate from Pierce (catalog number 37070ZZ) and was prepared by mixing 100 ml of the peroxide solution, 100 ml of the enhancer solution and 100 ml of Milli-Q® water.

Chain of E3 (His-APC11/APC2-"APC") (Q9NYG5 whole entry): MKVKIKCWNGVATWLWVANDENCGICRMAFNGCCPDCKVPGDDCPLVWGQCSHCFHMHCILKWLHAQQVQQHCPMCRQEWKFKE
Chain of E3 (His-APC11/APC2-"APC") (Q9UJX6 whole entry): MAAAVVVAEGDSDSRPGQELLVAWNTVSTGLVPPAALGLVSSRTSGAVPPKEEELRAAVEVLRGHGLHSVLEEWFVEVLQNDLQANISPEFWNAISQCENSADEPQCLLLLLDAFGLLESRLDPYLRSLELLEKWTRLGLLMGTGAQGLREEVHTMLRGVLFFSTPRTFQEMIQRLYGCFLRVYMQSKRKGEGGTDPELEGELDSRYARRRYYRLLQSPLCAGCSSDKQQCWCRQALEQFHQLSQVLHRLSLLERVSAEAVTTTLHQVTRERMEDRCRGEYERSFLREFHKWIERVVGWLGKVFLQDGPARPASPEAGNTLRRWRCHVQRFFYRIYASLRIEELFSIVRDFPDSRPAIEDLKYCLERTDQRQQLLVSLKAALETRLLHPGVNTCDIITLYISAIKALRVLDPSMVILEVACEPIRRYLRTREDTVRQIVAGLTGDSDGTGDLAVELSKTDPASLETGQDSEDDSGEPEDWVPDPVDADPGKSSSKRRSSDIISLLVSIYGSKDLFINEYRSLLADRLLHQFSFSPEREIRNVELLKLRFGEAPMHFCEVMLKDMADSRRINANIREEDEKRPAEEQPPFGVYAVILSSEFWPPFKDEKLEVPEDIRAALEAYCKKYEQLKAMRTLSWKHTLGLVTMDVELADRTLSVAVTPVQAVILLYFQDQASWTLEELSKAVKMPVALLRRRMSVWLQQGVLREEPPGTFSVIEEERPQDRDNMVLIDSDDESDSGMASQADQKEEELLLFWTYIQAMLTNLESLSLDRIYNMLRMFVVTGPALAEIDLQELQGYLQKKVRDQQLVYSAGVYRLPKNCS

Row | APC Flag 8 pt | Compound
1 | + | O=[N+]([O-])c1ccc(Oc2c(Cl)cc(S(=O)(=O)NCC3CC3)cc2Cl)c(Cl)c1 [Compound 120, N-(Cyclopropylmethyl)-3,5-Dichloro-4-(2-Chloro-4-Nitrophenoxy) Benzenesulfonamide]
2 | + | NS(=O)(=O)c1cc(Cl)c(Oc2ccc([N+](=O)[O-])cc2Cl)c(Cl)c1 [Compound 124, 3,5-dichloro-4-(2-chloro-4-nitrophenoxy)benzenesulfonamide]
3 | − | O=[N+]([O-])c1ccc(Oc2c(Cl)cc(S(=O)(=O)NCc3ccc(Br)cc3)cc2Cl)c(Cl)c1 [Compound 128, N-(4-bromobenzyl)-3,5-dichloro-4-(2-chloro-4-nitrophenoxy)benzenesulfonamide]
4 | + | CC(C)Oc1ccc(NS(=O)(=O)c2cc(Cl)c(Oc3ccc([N+](=O)[O-])cc3Cl)c(Cl)c2)cc1 [Compound 134, 3,5-dichloro-4-(2-chloro-4-nitrophenoxy)-N-[4-isopropoxyphenyl]benzenesulfonamide]
5 | − | O=C(NCC1CC1)[C@@H]1CCCN1S(=O)(=O)c1cc(Cl)c(Oc2ccc([N+](=O)[O-])cc2Cl)c(Cl)c1 [Compound 139, N-(cyclopropylmethyl)-1-{[3,5-dichloro-4-(2-chloro-4-nitrophenoxy)phenyl]sulfonyl}prolinamide]
6 | + | O=C(NCC1CC1)c1cccc(NS(=O)(=O)c2cc(Cl)c(Oc3ccc([N+](=O)[O-])cc3Cl)c(Cl)c2)c1 [Compound 151, N-(cyclopropylmethyl)-3-({[3,5-dichloro-4-(2-chloro-4-nitrophenoxy)phenyl]sulfonyl}amino)benzamide]
7 | − | CN(c1cccc(Cl)c1)S(=O)(=O)c1cc(Cl)c(Oc2ccc([N+](=O)[O-])cc2Cl)c(Cl)c1 [Compound 153, 3,5-dichloro-4-(2-chloro-4-nitrophenoxy)-N-(3-chlorophenyl)-N-methylbenzenesulfonamide]
8 | + | COc1ccc(Cl)cc1NS(=O)(=O)c1cc(Cl)c(Oc2ccc([N+](=O)[O-])cc2Cl)c(Cl)c1 [Compound 164, 3,5-dichloro-N-(5-chloro-2-methoxyphenyl)-(2-chloro-4-nitrophenoxy)lbenzenesulfonamide]
9 | − | O=C(Nc1cc(Cl)ccc1Cl)N1CCC(Oc2ncccn2)CC1 [Compound 310, N-(2,5-dichlorophenyl)-4-(pyrimidin-2-yloxy)piperidine-1-carboxamide]
10 | − | O=[N+]([O-])c1ccc(Oc2c(Cl)cc(S(=O)(=O)N3CCOCC3)cc2Cl)c(Cl)c1 [Example 15, 4-{[3,5-dichloro-4-(2-chloro-4-nitro-phenoxy)phenyl]sulfonyl}morpholine]
11 | − | CC1CCN(S(=O)(=O)c2cc(Cl)c(Oc3ccc([N+](=O)[O-])cc3Cl)c(Cl)c2)CC1 [Example 19, 1-{[3,5-dichloro-4-(2-chloro-4-nitrophenoxy)phenyl]sulfonyl}-4-methylpiperidine]
12 | + | CC1CC(C)CN(S(=O)(=O)c2cc(Cl)c(Oc3ccc([N+](=O)[O-])cc3Cl)c(Cl)c2)C1 (centres unmarked) [Example 20, 1-{[3,5-dichloro-4-(2-chloro-4-nitrophenoxy)phenyl]sulfonyl}-3,5-dimethylpiperidine]
13 | − | O=[N+]([O-])c1ccc(Oc2c(Cl)cc(S(=O)(=O)N3CCCC3)cc2Cl)c(Cl)c1 [Example 22, 1-{[3,5-dichloro-4-(2-chloro-4-nitrophenoxy)phenyl]sulfonyl}pyrrolidine]
14 | − | N=C(NS(=O)(=O)c1cc(Cl)c(Oc2ccc([N+](=O)[O-])cc2)c(Cl)c1)c1ccc(Cl)cc1 [Example 34, 4-chloro-N-{[3,5-dichloro4-(4-nitrophenoxy)phenyl]sulfonyl}benzenecarboximidamide]
15 | − | CC(=N)NS(=O)(=O)c1cc(Cl)c(Oc2ccc([N+](=O)[O-])cc2)c(Cl)c1 [Example 63, N-{[3,5-dichloro-4-(4-nitrophenoxy)phenyl]sulfonyl}ethanimidamide]
16 | + | O=S(=O)(c1ccc(Oc2ccc(Cl)cc2Cl)cc1F)N1CCCCC1 [Example 119, 1-{[4-(2,4-dichlorophenoxy)-2-fluorophenyl]sulfonyl)piperidine]
17 | − | O=[N+]([O-])c1ccc(Oc2c(Cl)cc(S(=O)(=O)NCC3CCCO3)cc2Cl)c(Cl)c1 (centres unmarked) [Example 121, 3,5-dichloro-4-(2-chloro-4-nitrophenoxy)-N-(tetrahydrofuran-2-ylmethyl)benzene-sulfonamide]
18 | + | O=C1CCC(CCCNS(=O)(=O)c2cc(Cl)c(Oc3ccc([N+](=O)[O-])cc3Cl)c(Cl)c2)N1 (centres unmarked) [Example 122, 3,5-dichloro-4-(2-chloro-4-nitrophenoxy)-N-[3-(5-oxopyrrolidin-2-yl)propyl] benzenesulfonamide]
19 | − | O=[N+]([O-])c1ccc(Oc2c(Cl)cc(S(=O)(=O)NCc3ccc(Cl)cc3)cc2Cl)c(Cl)c1 [Example 125, 3,5-dichloro-N-(4-chlorobenzyl)-4-(2-chloro-4-nitrophenoxy)benzenesulfonamide]
20 | − | O=[N+]([O-])c1ccc(Oc2c(Cl)cc(S(=O)(=O)NCCCOc3cc(Cl)cc(Cl)c3)cc2Cl)c(Cl)c1 [Example 126, 3,5-dichloro-4-(2-chloro-4-nitrophenoxy)-N-[3-(3,5-dichlorophenoxy)propyl] benzenesulfonamide]
21 | + | O=[N+]([O-])c1ccc(Oc2c(Cl)cc(S(=O)(=O)NCCc3ccc(Cl)cc3Cl)cc2Cl)c(Cl)c1 [Example 127, 3,5-dichloro-4-(2-chloro-4-nitrophenoxy)-N-[2-(2,4-dichlorophenyl)ethyl]benzene-sulfonamide]
22 | + | COc1ccc(CCNS(=O)(=O)c2cc(Cl)c(Oc3ccc([N+](=O)[O-])cc3Cl)c(Cl)c2)cc1 [Example 129, 3,5-dichloro-4-(2-chloro-4-nitrophenoxy)-N-[2-(4-methoxyphenyl)ethyl]benzene-sulfonamide]
23 | − | O=[N+]([O-])c1ccc(Oc2c(Cl)cc(S(=O)(=O)NC3CCNCC3)cc2Cl)c(Cl)c1 [Example 130, 3,5-dichloro-4-(2-chloro-4-nitrophenoxy)-N-piperidin-4-ylbenzenesulfonamide]
24 | + | CN(C)CCCNS(=O)(=O)c1cc(Cl)c(Oc2ccc([N+](=O)[O-])cc2Cl)c(Cl)c1 [Example 131]
25 | − | O=[N+]([O-])c1ccc(Oc2c(Cl)cc(S(=O)(=O)NCCN3CCOCC3)cc2Cl)c(Cl)c1 [Example 132, 3,5-dichloro-4-(2-chloro-4-nitrophenoxy)-N-(2-morpholin-4-ylethyl)benzenesulfonamide]
26 | − | O=[N+]([O-])c1ccc(Oc2c(Cl)cc(S(=O)(=O)NCc3ccncc3)cc2Cl)c(Cl)c1 [Example 133, 3,5-dichloro-4-(2-chloro-4-nitrophenoxy)-N-(pyridin-4-ylmethyl)benzenesulfonamide]
27 | + | CNS(=O)(=O)c1cc(Cl)c(Oc2ccc([N+](=O)[O-])cc2Cl)c(Cl)c1 [Example 135, 3,5-dichloro-4-(2-chloro-4-nitrophenoxy)-N-methylbenzenesulfonamide]

Row | Compound | APC Flag 8 pt
28 | N#Cc1ccc(N(S(=O)(=O)c2cc(Cl)c(Oc3ccc([N+](=O)[O-])cc3Cl)c(Cl)c2)S(=O)(=O)c2cc(Cl)c(Oc3ccc([N+](=O)[O-])cc3Cl)c(Cl)c2)cc1 [Example 136, 3,5-dichloro-4-(2-chloro-4-nitrophenoxy)-N-(4-cyanophenyl)-N-(1,3-dichloro-2-(2-chloro-4-nitrophenoxy)-5-sulfonylbenzene)-benzenesulfonamide] | +
29 | Cc1ccc(N(S(=O)(=O)c2cc(Cl)c(Oc3ccc([N+](=O)[O-])cc3Cl)c(Cl)c2)S(=O)(=O)c2cc(Cl)c(Oc3ccc([N+](=O)[O-])cc3Cl)c(Cl)c2)cc1 [Example 137, 3,5-dichloro-4-(2-chloro-4-nitrophenoxy)-N-(4-methylphenyl)-N-(1,3-dichloro-2-(2-chloro-4-nitrophenoxy)-5-sulfonylbenzene) benzenesulfonamide] | +
